Publication PMC6839174, “Targeting the Formyl Peptide Receptor type 1 to prevent the adhesion of ovarian cancer cells onto mesothelium and subsequent invasion” (Journal of Experimental & Clinical Cancer Research : CR, 2019)
Non-standard residues stand in square brackets, D forms with d. Aib = CC(C)(N)C(=O)O

Key:
primary EOC cells = test: Adhesion of primary EOC cells onto matrix proteins monitored in real time (xCELLigence); type: cell-based, human
Description: This assay was performed using E-16-well plates and the xCELLigence Real Time Cell Analysis technology. Bottom wells were coated with serum-free medium, 5 μg mL Vn, 5 μg mL Fn, 5 μg mL Lm or 15 μg mL Coll diluted in serum-free medium prior to seeding cells (1 × 10^4 cells/well) suspended in serum-free medium. Cells that adhere to the bottom of plates cause impedance changes which are proportional to the number of cells. The impedance value of each well was automatically monitored in real-time for at least 2 h and expressed as a cell index value. The experiments were performed three times in quadruplicate.
Fig. 6 RI-3 prevents EOC cell adhesion and subsequent invasion of mesothelium. a Adhesion of primary EOC cells on E-plates coated with 1% BSA (CTRL), 5 μg mL Vn, 5 μg mL Fn, 5 μg mL Lm or 15 μg mL Coll, with/without 10 nM RI-3, monitored in real time for 5 h by the xCELLigence system. Data represent mean ± SD from a quadruplicate experiment representative of 3 replicates. b-c Adhesion of EOC cells onto Vn in the absence or presence of 10 nM RI-3, monitored in real time for 3 h by the xCELLigence system. […] At the indicated times, cell associated fluorescence was assessed by a fluorescence plate reader. […] Cells invasion was monitored in real-time as changes in Cell Index due to breaking of the monolayer integrity (e). […]

SKOV-3 cells = test: GFP-SKOV-3 cell adhesion onto mesothelium (HPMC monolayer); type: cell-based, Human; conditions: means of three independent experiments in triplicate
Description: HPMCs (1 × 10^5 cells/well) suspended in growth medium, were seeded in 24-well plates and allowed to adhere for about 20 h until they form a confluent monolayer, prior to seeding GFP-tagged EOC cells suspended in growth medium plus diluents or 10 nM RI-3. At the indicated times, plates were accurately washed with PBS and cell-associated fluorescence was assessed by a fluorescence plate reader a fluorescence plate reader (Victor 3, Perkin Elmer), using 485 nm excitation and 535 nm emission filters. The experiments were performed three times in triplicate.

A2780 cells = test: HPMC invasion by A2780 cells monitored in real time; type: cell-based, Human; conditions: 10 nM RI-3; xCELLigence; quadruplicate representative of 2 replicates
Description: HPMCs (5 × 10^3 cells/well) suspended in growth medium, were seeded in E-16-well plates and allow to adhere for 18–20 h until they form a confluent monolayer, prior to seeding EOC cells (2 × 10^4 cells/well) in growth medium plus/minus 10 nM RI-3. When HPMCs are challenged with invading cells, there is a drop in electrical resistance within 2–4 h which is monitored in real-time as the Cell Index changes due to the rupture of mesothelium. The experiments were performed three times in quadruplicate.
Supplementary file 13046_2019_1465_MOESM1_ESM.zip: Additional file 1: Figure S1. Adhesion and mesothelial invasion properties of uPAR and FPR1 lacking EOC cells. a. […] analysis of human ovarian carcinoma A2780 cells with (CD87)-APC-conjugated anti-uPAR or PE-conjugated FPR1 antibodies. b. Cell adhesion of A2780 cells on 1% BSA (CTRL), Vn-, Fn-Lm or Coll-coated plates, in the presence or the absence of 10 nM RI-3. The number of adherent cells was expressed as a percentage of CTRL. Data are the means ± SD of three independent experiment. c. Mesothelium invasion by A2780 cells. […] Then, A2780 cells suspended in growth medium plus/minus 10 nM RI-3 were seeded onto the mesothelial cell monolayer and invasion of mesothelium by A2780 cells was monitored in real-time as changes in Cell Index due to breaking of the monolayer integrity. […]

[1] = cited from earlier work
Excerpt: (§1) Human FPR1, originally identified in neutrophils, monocytes and macrophages, has been shown in recent years, to be expressed also in many non-myelocytic cells. Aberrant expression of FPR1 was detected in tumors of different origin and reported as a negative prognostic factor [29–31]. While the role of uPAR in favoring intra-abdominal dissemination of ovarian cancer cells is largely documented, no data regarding expression and possible role of FPR1 on the surface of ovarian cancer cells are currently available. In the past years, we generated synthetic peptides containing the s ...

FPR1 = conditions: ref [36], cited from earlier work
Excerpt: as §1

[2] = system: p38 MAPK and PI3K/AKT signaling cascades; conditions: ref [36]; cited from earlier work
Excerpt: as §1

[3] = system: sarcoma and melanoma cells; conditions: dose dependent, ref [36], [37]; cited from earlier work
Excerpt: as §1

[4] = ref [36]; cited from earlier work
Excerpt: On the other hand, despite a variety of natural and synthetic compounds that interfere with FPR1-dependent pathways antagonizing FPR1functions have been described, the majority had off-target effects, discouraging their clinical development.

[5] = design: method as in PMID 28465589; conditions: mice, ref [36], cited from earlier work

Ac-[dY][dR][Aib][dR]-NH2 [RI-3, retro-inverso peptide, uPAR/FPR1 antagonist]
reduction of primary EOC cell adhesion onto Vn (primary EOC cells; 10 nM RI-3, 5 μg mL Vn, real time, slopes 10–120 min, quadruplicate representative of 3 replicates): 55%
matrix selectivity of adhesion reduction, primary EOC cells (primary EOC cells; 10 nM RI-3, Vn vs Fn, Coll, Lm, real time 5 h): exclusively reduced cell adhesion onto Vn
reduction of cell associated fluorescence (SKOV-3 adhesion to mesothelium) (SKOV-3 cells; 10 nM RI-3, after 5 min): 57%
reduction of cell associated fluorescence (SKOV-3 adhesion to mesothelium) (SKOV-3 cells; 10 nM RI-3, after 10 min): 47%
reduction of cell associated fluorescence (SKOV-3 adhesion to mesothelium) (SKOV-3 cells; 10 nM RI-3, after 20 min): 58%
reduction of cell associated fluorescence (SKOV-3 adhesion to mesothelium) (SKOV-3 cells; 10 nM RI-3, after 40 min): 54%
A2780 cell crossing of mesothelium (A2780 cells): ineffective
stability in human serum [1]: stable in human serum
competition for binding to FPR1 (FPR1; competes with fMLF and SRSRY): competes with fMLF and SRSRY for binding to FPR1
SRSRY-induced FPR1 internalization (FPR1): preventing SRSRY-induced FPR1 internalization
p38 MAPK and PI3K/AKT signaling cascades [2]: preventing SRSRY-induced FPR1 internalization as well as p38 MAPK and PI3K/AKT signaling cascades
concentration range for overall 50% reduction of cell invasion [3]: nanomolar range
concentration range for overall 50% reduction of cell migration [3]: picomolar
cell proliferation [4]: does not affect cell proliferation
body weight ([5]; versus vehicle-treated animals): no change of body weight
tolerability in vivo [5]: well tolerated in vivo
visible side-effects [5]: no visible side-effects
